The source of these data is patent US20110021623A1, “SYSTEM AND METHODS OF MELANOMA PREVENTION” (Regents of the University of New Mexico, priority 2006, published 2011).

The structures appear in SMILES notation. Read-outs that look alike come from different tables or passages of the source.

The test system of data set [1] is mouse melanocyte cell line (B16). The data set is described as follows: DNA adduct assay (13C tyrosine enrichment, isotope ratio mass spectrometry). The data set is classed as cell-based. The note with it: B16 cells, 300 μM PTU immediately after 20 min full spectrum UV, 5 μM 13C tyrosine 1 hour after UV, DNA isolated after 4 hours. Here is the method: FIG. 4 is a graph illustrating a DNA adduct assay. Mouse melanocyte cell line (B16) was incubated with 300 μM phenylthiourea (PTU) immediately after ultraviolet (UV) radiation exposure. After 20 minutes of full spectrum ultraviolet (UV) radiation exposure, 5 μM ^13C tyrosine was added 1 hour after ultraviolet (UV) radiation exposure. After 4 hours, DNA was isolated and adducts determined as an increase in ^13C enrichment over baseline after combustion and isotope ratio mass spectrometry.

The test system is the same in data set [2]. The data set is described as follows: Melanocyte survival by trypan blue exclusion after solar simulated UV exposure. The data set is classed as cell-based. The note with it: for Melanocyte survival (viability) in ultraviolet (UV) exposed cells: 20 min solar simulated UV (~15 MEDS), increasing doses of inhibitor after exposure, trypan blue exclusion 24 hours after UV. Here is the method:
FIG. 3 is a graph illustrating death of melanocytes with tyrosinase inhibitors applied subsequent to ultraviolet (UV) radiation exposure. The graph illustrates results from a study conducted with mice melanocyte cell line (B16). The mouse melanocyte cell line (B16) was exposed to solar simulated ultraviolet (UV) radiation for 20 minutes. The solar ultraviolet (UV) radiation was simulated using a 300 W Xe solar simulator, equivalent to approximately 15 Minimal Erythemal Doses (MEDS), or equivalent to strong sunburn. After ultraviolet (UV) radiation exposure, cells were treated with increasing doses of the following tyrosinase inhibitors: kojic acid (shown in FIG. 3A) and methyl gentisate (shown in FIG. 3B). Melanocyte survival was determined by trypan blue exclusion 24 hours after ultraviolet (UV) radiation exposure. It was shown that there was no effect of tyrosinase inhibitors on the survival in non-ultraviolet (UV) exposed cells (not shown in FIG. 3). […] Preventing quinones from passing out of the melanosome substantially protects melanocytes from DNA damage.

Turning to `NC(=S)Nc1ccccc1` [PTU, phenylthiourea], the “DNA adducts (13C enrichment over baseline, delta value)” value in data set [1] is “greatly decreases DNA adducts”.

As to `O=c1cc(CO)occ1O` [kojic acid], the “Melanocyte survival (viability) in ultraviolet (UV) exposed cells” value in data set [2] (B16 cells) was “dose dependent increase in viability”. In addition, the “Melanocyte survival in non-ultraviolet (UV) exposed cells” value in data set [2] (B16 cells, no UV exposure, trypan blue exclusion) is recorded as “no effect”.

Take `COC(=O)c1cc(O)ccc1O` [methyl gentisate]: in data set [2], the “Melanocyte survival in non-ultraviolet (UV) exposed cells” value is reported as “no effect”. Also, the “Melanocyte survival (viability) in ultraviolet (UV) exposed cells” value in data set [2] (B16 cells) is given as “dose dependent increase in viability”.
